Patent US11160279B2, “Method of controlling herbicide resistant weeds” (Sumitomo Chemical Company, Limited, priority 2018, dated 2021)

Key:
Format in all cases: in vivo
[1] = system: Amaranthus palmeri having an Arg128Met mutation in PPO2; assay: Soil surface treatment on the day the weed is sown, soybean sown 7 days later, greenhouse pot test (Example 1); conditions: 10, 20, 40, or 80 g/ha applied to soil surface, 200 L/ha aqueous dilution; soybean sown after 7 days; examined after 14 days
Description: Amaranthus palmeri having an Arg128Met mutation in PPO2 is sown in a plastic pot. On the same day, a compound X is applied to the surface of soil in an amount of 10, 20, 40, or 80 g/ha by spraying 200 L/ha of an aqueous dilution containing the compound X. Then, the weeds are cultivated in a greenhouse and soybean seeds are sown after 7 days, to examine the effects on the weeds and phytotoxic effects on soybean after 14 days.

[2] = system: Amaranthus palmeri having an Arg128Met mutation in PPO2; assay: Soil surface treatment on the day weed and soybean are sown, greenhouse pot test (Example 2); conditions: 10, 20, 40, or 80 g/ha applied to soil surface on day of sowing, 200 L/ha aqueous dilution; examined after 21 days
Description: Amaranthus palmeri having an Arg128Met mutation in PPO2 and soybean are sown in a plastic pot. On the same day, a compound X is applied to the surface of soil in an amount of 10, 20, 40, or 80 g/ha by spraying 200 L/ha of an aqueous dilution containing the compound X. Then, the weeds and soybean are cultivated in a greenhouse to examine the effects on the weeds and phytotoxic effects on soybean after 21 days.

[3] = system: Amaranthus palmeri having an Arg128Met mutation in PPO2; assay: Foliar treatment 21 days after sowing weed and soybean, greenhouse pot test (Example 3); conditions: 10, 20, 40, or 80 g/ha foliar treatment 21 days after sowing, 200 L/ha aqueous dilution; examined 14 days after the treatment
Description: Amaranthus palmeri having an Arg128Met mutation in PPO2 and soybean are sown in a plastic pot. Then, the weeds and soybean are cultivated in a greenhouse. A compound X is applied in an amount of 10, 20, 40, or 80 g/ha by spraying 200 L/ha of an aqueous dilution containing the compound X to perform foliar treatment 21 days after the sowing. Then, the weeds and soybean are cultivated in a greenhouse to examine the effects on the weeds and phytotoxic effects on soybean 14 days after the treatment.

Measured: effects on the weeds (herbicidal effect)

CCOC(=O)COc1ncccc1Oc1cc(-n2c(=O)cc(C(F)(F)F)n(C)c2=O)c(F)cc1Cl [compound X, Ethyl [3-[2-chloro-4-fluoro-5-(1-methyl-6-trifluoromethyl-2,4-dioxo-1,2,3,4-tetrahydropyrimidine-3-yl)phenoxy]-2-pyridyloxy]acetate]
valuable effect: all assays above
